Laboratory results reported in the NIST ThermoML archive (doi:10.1016/j.fluid.2011.06.007).
± gives the expanded uncertainty stated by the source.

Experiment: xn = mol fraction of the nth substance listed
Settings: Liquid; for mass density: 298.15 K, 101.3 kPa, Vibrating tube method; for interfacial tension: 303.15 K, maximum differential bubble pressure

CCCCCC [hexane] + CCC(C)(C)OC
x1 = 1
Settings | interfacial tension [mN/m] | mass density [kg/m3]
– | 17.4 ± 0.2 | 655.19 ± 0.18

CCC(C)(C)OC [2-methoxy-2-methylbutane] + CCCCCC
Settings | interfacial tension [mN/m] | mass density [kg/m3]
x2 = 0 | 22 ± 0.2 | 765.8 ± 0.14
x2 = 0.038 | – | 761.49 ± 0.27
x2 = 0.051 | 21.6 ± 0.2 | –
x2 = 0.092 | – | 755.29 ± 0.27
x2 = 0.1 | 21.06 ± 0.2 | –
x2 = 0.145 | – | 749.34 ± 0.27
x2 = 0.194 | – | 743.82 ± 0.27
x2 = 0.209 | 20.64 ± 0.2 | –
x2 = 0.247 | – | 737.76 ± 0.27
x2 = 0.305 | 20.12 ± 0.2 | –
x2 = 0.346 | – | 726.73 ± 0.27
x2 = 0.399 | 19.8 ± 0.2 | –
x2 = 0.443 | – | 715.93 ± 0.27
x2 = 0.497 | – | 709.95 ± 0.27
x2 = 0.506 | 19.12 ± 0.2 | –
x2 = 0.552 | – | 703.83 ± 0.27
x2 = 0.597 | – | 698.92 ± 0.27
x2 = 0.611 | 18.71 ± 0.2 | –
x2 = 0.644 | – | 693.78 ± 0.27
x2 = 0.696 | – | 688.15 ± 0.28
x2 = 0.714 | 18.34 ± 0.2 | –
x2 = 0.745 | – | 682.72 ± 0.28
x2 = 0.795 | – | 677.33 ± 0.28
x2 = 0.813 | 18.02 ± 0.2 | –
x2 = 0.852 | – | 671.14 ± 0.28
x2 = 0.901 | – | 665.86 ± 0.28
x2 = 0.914 | 17.66 ± 0.2 | –
x2 = 0.952 | – | 660.3 ± 0.28
x2 = 0.96 | 17.55 ± 0.2 | –
